Assay results published in US11054425B2, “System and method for identification and characterization of transglutaminase species” (Roche Sequencing Solutions, Inc., priority 2014, dated 2021).
No end group written: not given here. *: point of attachment. Cbz = O=C(OCc1ccccc1)*

Legend:
Assay type in all cases: biochemical, Kutzneria albida
[1] = test system: KalbTG; experiment: GLDH-coupled assay in solution (NADH oxidation); conditions: NADH oxidation at 340 nm, 37° C.
Method: KalbTG activity was obtained by measuring incorporation of a biotinylated amine-donor on the peptide array and rates of NADH oxidation at 340 nm and 37° C. in the presence of amine-donor substrate (500 μM) in the GLDH-coupled assay using 100 μM each of nine of the best-performing array-selected glutamine-containing substrates and of two S. mobaraensis MTG glutamine-containing substrates. […] Testing of the top sequences in Table 1 confirmed YRYRQ (SEQ ID NO: 1) and RYRQR (SEQ ID NO 14) as the top performing 5-mer substrates, with turnover rates of 3.52±0.08 pmol NADH s^−1 and 3.60±0.12 pmol NADH s^−1, respectively.
With reference to Table 2, KalbTG activity was obtained by measuring incorporation of a biotinylated glutamine-donor and rates of NADH oxidation at 340 nm and 37° C. in the presence of glutamine-donor substrate (200 μM) in the GLDH-coupled assay using 100 μM each of i) six of the top-performing array-selected lysine substrates, ii) cadaverine, and iii) preferred MTG lysine substrate ARSKL (SEQ ID NO:30). […] This is a small but significant increase over cadaverine (3.51±0.12 pmol s^−1) or ARSKL (SEQ ID NO:30) (3.87±0.31 pmol s^−1), a peptide previously established as a preferred MTG lysine donor motif on the peptide array. Additional details on the S. mobaraensis MTG substrate peptide ARSKL (SEQ ID NO:30) can be found in U.S. Provisional Patent Application Ser. No. 62/094,495 to Albert et al. filed on Dec. 19, 2014.
For the GLDH coupled assay, to determine whether the KalbTG peptides selected in the array assay were also preferred substrates in a solution reaction and to quantify cross-reactivity of KalbTG and S. mobaraensis MTG with various substrates, a continuous glutamate dehydrogenase (GLDH)-coupled assay for S. mobaraensis MTG activity (see Oteng-Pabi, et al., 2013. Analytical biochemistry 441(2): 169-173) was applied.
For glutamine substrate evaluation, the assay was performed in a transparent 96-well microtiter plate in the presence of 500 μM α-ketoglutarate, 500 μM or 1 mM cadaverine as Amine donor substituting for a lysine-containing peptide, 2 U ml^−1 of glutamate dehydrogenase (GLDH), 500 μM NADH and glutamine-containing substrate peptide (Z-[[…] (SEQ ID NO:77)], Z-[[…] (SEQ ID NO:78)], Z-[[…] (SEQ ID NO:75)], Z-[[…] (SEQ ID NO:79)], Z-[[…] (SEQ ID NO:80)], Z-[[…] (SEQ ID NO:81)], Z-[[…] (SEQ ID NO:82)], Z-[[…] (SEQ ID NO:83)], Z-[[…] (SEQ ID NO:84)], Z-[[…] (SEQ ID NO:85)], Z-[[…] (SEQ ID NO:86)], Z-[[…] (SEQ ID NO:76)] or Z-[[…] (SEQ ID NO:87)]) concentrations ranging between 0 and 1 mM in 200 mM MOPS, 1 mM EDTA pH 7.2 (total volume per well 200 μl).
For amine substrate evaluation, assay conditions were the same as for glutamine substrate evaluation with the exception that 100 μM each of amine substrate (Z-[[…] (SEQ ID NO:88)], Z-[[…] (SEQ ID NO:89)], Z-[[…] (SEQ ID NO:90)], Z-[[…] (SEQ ID NO:91)], Z-[[…] (SEQ ID NO:92)], Z-[[…] (SEQ ID NO:93)], Z-[[…] (SEQ ID NO:94)], Z-[[…] (SEQ ID NO:95)] or cadaverine) and 200 μM glutamine donor (Z-[[…] (SEQ ID NO:75)] or Z-[[…] (SEQ ID NO:76)]) were used.
Reactions were started by the addition of 5 μg ml^−1 of S. mobaraensis MTG or KalbTG and the oxidation of NADH was continuously recorded at 340 nm for 60 minutes using a Biotek Synergy H4 microplate reader, temperature controlled at 37° C., with short shaking intervals before each measurement. After a short lag phase where the GLDH was saturated by transglutaminase-mediated release of ammonia, linear rates of absorbance versus time corresponding to transglutaminase turnover were observed and subjected to Michaelis-Menten kinetic analysis. […]

[2] = test system: KalbTG; experiment: 5-mer peptide array, lysine-substrate screening with biotinylated glutamine donor; conditions: incorporation of biotinylated glutamine-donor on 5-mer peptide array
Source text: A second round of maturation on the peptide array yielded […] (SEQ ID NO:24) as the top performing 9-mer substrate, which was then resynthesized as biotinylated peptide to act as acyl donor for the discovery of optimized lysine recognition motifs back on the 5-mer peptide array (FIG. 4B). Again, six of the best lysine-containing peptides were resynthesized and tested in the KalbTG in-solution activity assay using a peptide containing the optimized glutamine recognition sequence YRYRQ (SEQ ID NO:1) as an acyl donor (Table 2). It will be appreciated that calculation of an array signal for cadaverine was not applicable due to omission of cadaverine from the array.
(§1) For construction of the peptide array, a library of 1,360,732 unique 5-mer peptides was designed by using all combinations of 18 natural amino acids excluding cysteine and methionine, as well as any dimer or a longer repeat of the same amino acid, and any peptide containing a dipeptide selected from HR, RH, HK, KH, RK, KR, HP, and PQ sequences. The library was synthesized in duplicate on the same array by using maskless light-directed peptide array synthesis. Each 5-mer peptide was flanked on both the N-terminus and C-terminus by 3 amino acid-long linkers synthesized by using mixture of glycine and serine having a 3:1 ratio.
In order to test KalbTG specificity for lysine substrates, chemically synthesized Z-[[…] (SEQ ID NO:31)]-PEG-Biotin peptide—which includes the sequence […] (SEQ ID NO:31)—was used as a glutamine-containing substrate to biotinylate lysine-containing peptides. Array biotinylation was done as described above with 0.1 ng μl^−1 KalbTG, 0.8 μM peptide at 37° C. for 15 minutes. Note that the a “Z—” in front of a peptide or other like construct is used herein to represent a carboxybenzyl group unless stated otherwise.
Target sequence in this assay (as listed by the source): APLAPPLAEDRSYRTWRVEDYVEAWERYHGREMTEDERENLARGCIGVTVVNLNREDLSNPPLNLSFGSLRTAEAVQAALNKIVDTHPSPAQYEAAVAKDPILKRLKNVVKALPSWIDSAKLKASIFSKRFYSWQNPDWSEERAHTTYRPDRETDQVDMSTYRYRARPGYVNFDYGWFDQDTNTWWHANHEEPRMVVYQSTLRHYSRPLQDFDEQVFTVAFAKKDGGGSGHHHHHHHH

[3] = test system: KalbTG; experiment: 5-mer peptide array, glutamine-substrate screening with biotinylated amine donor; conditions: incorporation of biotinylated amine-donor on 5-mer peptide array
Method: To identify potential acyl-donor and amine-donor substrates of the K. albida transglutaminase, high-throughput screening on 5-mer peptide arrays was performed (FIGS. 4A and 4B). An activity of at least 1.65 U/mg for both the SlyD-fused and the mature KalbTG enzymes was confirmed by commercial assay (Zedira MTG-ANiTA-KIT; compared to 4.3 U mg^−1 by the MTG supplied with the kit and a 0.07 U/mg blank value with BSA). The assay used β-casein as a cross-linking substrate and detected deamidation by a glutamate dehydrogenase dependent oxidation of NADPH. Specific recognition motifs were identified by assaying KalbTG with peptide arrays prepared by maskless array synthesis (U.S. Pat. Pub. No 2015/0185216 to Albert et al. filed on 19 Dec. 2014). The efficiency of the transamidation reaction between 1.4 million unique 5-mer peptides and a biotinylated amine donor was quantified on two arrays in parallel and the sequences of the peptides with the highest turnovers were determined (FIG. 4A). The nine best peptides were resynthesized and tested for KalbTG activity in a standalone GLDH-coupled assay. Note that the array signal for the sequence MLAQG (SEQ ID NO:13) is marked not applicable (n. a.) as this sequence was not included on the array. Similarly, measurement of a background signal was only applicable to experiments performed on the array.
as §1
Target sequence in this assay (as listed by the source): as above
To test KalbTG specificity for glutamine-containing substrate, N-(biotinyl)cadaverine was used as a substitute for a lysine substrate to biotinylate glutamine-peptides on a peptide array. KalbTG labeling reaction was performed in 1200 μL 100 mM Tris-HCl pH 8, 1 mM DTT, 50 μM N-(biotinyl)cadaverine, 0.2 ng μl^−1 KalbTG in SecureSeal™ chamber (Grace Bio-Labs) at 37° C. for 45 minutes. After incubation the chamber was removed and the array was washed in 20 mM Tris-HCl, pH7.8, 0.2 M NaCl, 1% SDS for 1 minute followed by a 1 minute wash in 20 mM Tris-HCl. Biotin linked to the array was stained with 0.3 μg ml^−1 Cy5-streptavidin in 10 mM Tris-HCl, pH7.4, 1% alkali-soluble casein, 0.05% TWEEN-20 non-ionic detergent at room temperature for 1 hour. Cy5 fluorescence intensity was measured with a fluorescence scanner at a resolution of 2 μm and a wavelength of 635 nm.

[4] = 100 μM amine substrate, 200 μM glutamine-donor substrate
[5] = 100 μM glutamine-containing substrate, 500 μM amine-donor substrate

**Q.** Which results are given for NCCCCCN [Cadaverine, reference compound]?
**A.** Reaction rate in solution [1, 4]: 3.51 ± 0.12 pmol/s; Reaction rate in solution ([1]; 100 μM amine substrate, 200 μM glutamine-donor substrate, listed as cadaverine): 3.51 ± 0.12 pmol/s

**Q.** With “ARSKL (Cbz-ARSKL) [preferred MTG lysine substrate, reference compound]” as the molecule, how does the “Array signal (log2)” value [2] read?
**A.** Its value is 12.0 log2.

**Q.** And the “Reaction rate in solution” value [1, 4]?
**A.** The value was 3.87 ± 0.31 pmol/s.

**Q.** With AYRTK (Cbz-AYRTK) [KalbTG lysine 5-mer] as the molecule, how does the “Array signal (log2)” value [2] read?
**A.** Its value is 12.57 log2.

**Q.** And the “Reaction rate in solution” value [1, 4]?
**A.** Its value is 3.65 ± 0.17 pmol/s.

**Q.** With “FRQRG (Cbz-FRQRG) [KalbTG glutamine-donor 5-mer]” as the molecule, how does the “Array signal (log2)” value [3] read?
**A.** Its value is 8.82 log2.

**Q.** What about the “Reaction rate in solution” value [1, 5] of the same molecule?
**A.** The value was 2.11 ± 0.13 pmol/s.

**Q.** With “FRQRQ (Cbz-FRQRQ) [KalbTG glutamine-donor 5-mer]” as the molecule, how does the “Array signal (log2)” value [3] read?
**A.** The value was 8.93 log2.

**Q.** And the “Reaction rate in solution” value [1, 5]?
**A.** The value was 3.07 ± 0.17 pmol/s.

**Q.** Which “Array signal (log2)” value [3] does the source give for “QRQRQ (Cbz-QRQRQ) [KalbTG glutamine-donor 5-mer]” here?
**A.** Its value is 8.77 log2.

**Q.** What about the “Reaction rate in solution” value [1, 5] of the same molecule?
**A.** The value was 2.98 ± 0.01 pmol/s.

**Q.** “QYRQR (Cbz-QYRQR) [KalbTG glutamine-donor 5-mer]” was tested. Which “Array signal (log2)” value [3] did it give?
**A.** The value was 8.70 log2.

**Q.** What about the “Reaction rate in solution” value [1, 5] of the same molecule?
**A.** Its value is 1.92 ± 0.07 pmol/s.

**Q.** Which results are given for “RQRQR (Cbz-RQRQR) [KalbTG glutamine-donor 5-mer]”?
**A.** Array signal (log2) [3]: 8.84 log2; Reaction rate in solution [1, 5]: 2.06 ± 0.08 pmol/s

**Q.** What does the source list for “RYESK (Cbz-RYESK) [KalbTG lysine (K-tag) 5-mer]”?
**A.** Array signal (log2) [2]: 12.65 log2; Reaction rate in solution [1, 4]: 4.47 ± 0.16 pmol/s

**Q.** With RYGKS (Cbz-RYGKS) [KalbTG lysine 5-mer] as the molecule, how does the “Array signal (log2)” value [2] read?
**A.** Its value is 12.38 log2.

**Q.** And the “Reaction rate in solution” value [1, 4]?
**A.** Its value is 2.66 ± 0.11 pmol/s.

**Q.** Which “Array signal (log2)” value [3] does the source give for “RYRQR (Cbz-RYRQR) [KalbTG glutamine-donor 5-mer]” here?
**A.** The value was 8.96 log2.

**Q.** And the “Reaction rate in solution” value [1, 5]?
**A.** The value was 3.60 ± 0.12 pmol/s.

**Q.** With RYRSK (Cbz-RYRSK) [KalbTG lysine 5-mer] as the molecule, how does the “Array signal (log2)” value [2] read?
**A.** Its value is 12.45 log2.

**Q.** What about the “Reaction rate in solution” value [1, 4] of the same molecule?
**A.** The value was 3.26 ± 0.10 pmol/s.

**Q.** How did the “Array signal (log2)” value [2] turn out when “RYSKY (Cbz-RYSKY) [KalbTG lysine (amine-donor) 5-mer]” was run?
**A.** The value was 12.75 log2.

**Q.** And the “Reaction rate in solution” value [1, 4]?
**A.** Its value is 3.89 ± 0.04 pmol/s.

**Q.** Which results are given for “RYSQR (Cbz-RYSQR) [KalbTG glutamine-donor 5-mer]”?
**A.** Array signal (log2) [3]: 8.93 log2; Reaction rate in solution [1, 5]: 3.22 ± 0.10 pmol/s

**Q.** Which results are given for YKGRG (Cbz-YKGRG) [KalbTG lysine 5-mer]?
**A.** Array signal (log2) [2]: 12.25 log2; Reaction rate in solution [1, 4]: 3.01 ± 0.09 pmol/s

**Q.** With “YKYRQ (Cbz-YKYRQ) [KalbTG glutamine-donor 5-mer, lysine-containing]” as the molecule, how does the “Array signal (log2)” value [3] read?
**A.** Its value is 8.70 log2.

**Q.** What about the “Reaction rate in solution” value [1, 5] of the same molecule?
**A.** Its value is 4.00 ± 0.18 pmol/s.
